The values that follow are results of earlier work, collected in patent US20210137911A1, “NOVEL CHRONOTHERAPY BASED ON CIRCADIAN RHYTHMS” (THE TRUSTEES OF THE UNIVERSITY OF PENNSYLVANIA, priority 2014, published 2021).

The conditions of this series: cited from earlier work.
[1] abbreviates: half-life of therapeutic compound as listed in Table 1.
Where [2] appears, read: half-life of top selling therapeutic compounds (Table 1).

Read-outs that look alike come from different tables or passages of the source.

In the case of Interferon alfacon-1, the “½ Life” value (in vivo) was 1.3 h. Consider `O=C(O)CCCO` [Gamma Hydroxybutyric Acid], for which, under setting [1], the “½ Life” value was 0.5 h.

In the case of `CC(C(=O)O)c1ccc(-c2ccccc2)c(F)c1` (stereo not drawn) [Flurbiprofen], the “½ Life” value under setting [2] is 4.7 h. As to `CC(C)C[C@H](NC(=O)CNC(=O)[C@H](Cc1ccc(O)cc1)NC(=O)[C@H](CO)NC(=O)[C@H](Cc1c[nH]c2ccccc12)NC(=O)[C@H](Cc1cnc[nH]1)NC(=O)[C@@H]1CCC(=O)N1)C(=O)N[C@@H](CCCNC(=N)N)C(=O)N1CCC[C@H]1C(=O)NCC(N)=O` [Gonadorelin], the “½ Life” value (in vivo) is 0.033 h. Take `NC(N)=NCCC[C@@H](N)C(=O)N[C@@H](CCCN=C(N)N)C(=O)N1CCC[C@H]1C(=O)N1C[C@H](O)C[C@H]1C(=O)NCC(=O)N[C@@H](Cc1cccs1)C(=O)N[C@@H](CO)C(=O)N1Cc2ccccc2C[C@@H]1C(=O)N1[C@H](C(=O)N[C@@H](CCCN=C(N)N)C(=O)O)C[C@@H]2CCCC[C@@H]21` [Icatibant]: where the note is “in vivo”, the “½ Life” value was 1.4 h.

For the compound `CC(=O)O[C@H]1C[C@@H]2CC[C@@H]3[C@H](CC[C@@]4(C)[C@H]3C[C@H]([N+]3(C)CCCCC3)[C@@H]4OC(C)=O)[C@@]2(C)C[C@@H]1N1CCCCC1` [Vecuronium], the “½ Life” value (in vivo) was 0.85 h. Consider `OCCN1C[C@H](O)[C@@H](O)[C@H](O)[C@H]1CO` [Miglitol], for which the “½ Life” value under setting [1] was 2 h. Regarding Anakinra, under “in vivo”, the “½ Life” value was 4 h. Consider `CN(C)CCc1c[nH]c2ccc(C[C@H]3COC(=O)N3)cc12` [Zolmitriptan], for which, for the setting “in vivo”, the “½ Life” value is 3 h. As to `COc1cccc2c1C(=O)c1c(O)c3c(c(O)c1C2=O)C[C@@](O)(C(=O)CO)C[C@@H]3O[C@H]1C[C@H](N)[C@@H](O)[C@H](C)O1` [Epirubicin], the “½ Life” value under setting [2] is 3 h. Turning to `COc1cc2c(c(OC)c1OC)-c1ccc(OC)c(=O)cc1[C@@H](NC(C)=O)CC2` [Colchicine], under setting [2], the “½ Life” value was 1 h.

As to `O=C(CCCCCCC(=O)Nc1ccccc1)NO` [Vorinostat], the “½ Life” value (in vivo) was 2 h. `Cc1c(OCC(F)(F)F)ccnc1C[S+]([O-])c1nc2ccccc2[nH]1` (stereo not drawn) [Lansoprazole]: the “½ Life” value under setting [1] is 1.5 h.

With `CC(NCCc1ccc(O)cc1)C(O)c1ccc(O)cc1` (stereo not drawn) [Ritodrine], the “½ Life” value (in vivo) was 1.7 h. In the case of `CCOC(=O)C1=C[C@@H](OC(CC)CC)[C@H](NC(C)=O)[C@@H](N)C1` [Oseltamivir], the “½ Life” value under setting [1] was 1 h.

Regarding `COc1ccc2cccc(CCNC(C)=O)c2c1` [Agomelatine], the “½ Life” value under setting [2] was 2 h. As to `COc1ccc2nc([S@@+]([O-])Cc3ncc(C)c(OC)c3C)[nH]c2c1` [Esomeprazole], the “½ Life” value under setting [2] was 1 h. As to `CC(C)NCC(O)COc1cccc2[nH]ccc12` (stereo not drawn) [Pindolol], under setting [1], the “½ Life” value is 3 h.

In the case of `Brc1c(NC2=NCCN2)ccc2nccnc12` [Brimonidine], under setting [2], the “½ Life” value is 2 h. For the compound `CCCCS(=O)(=O)N[C@@H](Cc1ccc(OCCCCC2CCNCC2)cc1)C(=O)O` [Tirofiban], the “½ Life” value (in vivo) is 2 h.

Turning to `Cc1ccc(C(=O)c2ccc(CC(=O)O)n2C)cc1` [Tolmetin], where the note is “in vivo”, the “½ Life” value is 2 h. Take Aldesleukin: the “½ Life” value (in vivo) is 0.216 h. For `Oc1ncnc2[nH]ncc12` [Allopurinol], the “½ Life” value under setting [2] was 1 h. For the compound `CC(C)OC(=O)CCC/C=C\C[C@@H]1[C@@H](CC[C@@H](O)CCc2ccccc2)[C@H](O)C[C@@H]1O` [Latanoprost], the “½ Life” value under setting [1] is 0.283 h. As for `C[C@H]1C[C@H]2[C@@H]3CCC4=CC(=O)C=C[C@]4(C)[C@@]3(F)[C@@H](O)C[C@]2(C)[C@@]1(O)C(=O)CO` [Betamethasone], under setting [2], the “½ Life” value was 5.6 h. With `C[C@]12C=CC(=O)C=C1CC[C@H]1[C@@H]3C[C@@H](O)[C@](O)(C(=O)CO)[C@@]3(C)C[C@H](O)[C@@]12F` [Triamcinolone], the “½ Life” value (in vivo) is 1.466 h. On to `CCCC1O[C@@H]2C[C@H]3[C@@H]4CCC5=CC(=O)C=C[C@]5(C)[C@H]4[C@@H](O)C[C@]3(C)[C@]2(C(=O)CO)O1` (stereo partly drawn) [Budesonide], for which the “½ Life” value under setting [2] is 2 h.
